Assays:
[1] = target: T1, B. cereus β-lactamase (II) (Bacillus cereus, UniProt P04190); format: biochemical
T1 sequence (P04190 31-257): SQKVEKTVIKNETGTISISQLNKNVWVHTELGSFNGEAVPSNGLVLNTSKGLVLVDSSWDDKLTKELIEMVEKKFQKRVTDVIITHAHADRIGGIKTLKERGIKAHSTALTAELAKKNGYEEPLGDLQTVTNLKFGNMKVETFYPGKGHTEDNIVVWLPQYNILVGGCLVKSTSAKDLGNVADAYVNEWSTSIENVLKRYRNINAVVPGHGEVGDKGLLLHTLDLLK

[2] = target: B. cereus β-lactamase (Bacillus cereus, UniProt P04190); format: biochemical; details: substrate 100 µg/ml, 0.05 M phosphate buffer, pH 7.0, 25°C
[3] = Stability of ADR-ceph in buffer at pH 7.4 at 37°C, HPLC; format: physicochemical; details: buffer at pH 7.4, 37°C
Experimental: (§1) Stock solutions of the β-lactamase and lactamase-L6 conjugate were prepared in 0.05 M Hepes buffer (pH7). Aliquots of these stock solutions were added to solutions of ADR-ceph in human plasma thermostated at 37°C. The final concentration of ADR-ceph was 572 µg/ml in the β-lactamase experiment and 896 µg/ml in the L6-lactamase experiment; and the final concentrations of β-lactamase and L6-lactamase conjugate were 0.45 µg/ml and 5.4µg/ml, respectively. Aliquots were withdrawn periodically and were added to two volumes of cold methanol (4°C). The precipitated proteins were removed by centrifugation. The supernatants were analyzed by HPLC using a Waters Associates C18 Radial Pak cartridge (8x100 mm). The column was eluted at 2.0 mL/min with a mobile phase of 60% of 0.05 M ammonium phosphate (pH 6.5) containing 5% acetonitrile and 40% of a mixture of acetonitrile-water (80:20). The peaks were detected by uv at 254 nm. In these assays the respective retention times for adriamycin and ADR-ceph were 3.8 and 7.5 minutes.
(§2) Using the same HPLC assay described in Example 2.2.2 the respective half lives at 37°C of ADR-ceph in rat plasma, buffer at pH 7.4, and human plasma are 8, 20 and ≧ 12 hours (Figure 9).

[4] = Stability of ADR-ceph in rat plasma at 37°C, HPLC; format: in vitro ADME
Experimental: as §1, §2

[5] = target: P99 cephalosporinase from E. cloacae (Enterobacter cloacae, UniProt P05364); format: biochemical; details: pH 7
[6] = target: Sigma penicillinase from E. cloacae (Enterobacter cloacae, UniProt P05364); assay: Specific activity of β-lactamases for cephalosporin substrates, spectrophotometric; format: biochemical; details: substrate 100 µg/ml, 0.05 M phosphate buffer, pH 7.0, 25°C
Experimental: The specific activities of selected β-lactamases for ADR-ceph were examined. These enzymes were B. cereus β-lactamase, lactamase-L6 conjugate, Sigma penicillinase from E. cloacae (Sigma Chemical) and P99 cephalosporinase from E. cloacae. All enzymes were diluted to give protein concentrations of 0.20 ± 0.01 mg/ml (with respect to β-lactamase). Assays were performed spectrophotometrically to 0.05 M phosphate buffer, pH 7.0, at 25°C. Cephaloridine was used as a reference substrate for the enzymes.
P99 cephalosporinase had the highest specific activity for both cephaloridine and ADR-ceph. […] The Sigma "penicillinase" had the lowest activity of all the preparations. […] The differences in activity is probably due to differences in purity between the two preparations.

[7] = Stability of ADR-ceph in human plasma at 37°C, HPLC; format: in vitro ADME
Experimental: as §1, §2

[8] = target: L6-lactamase (B. cereus) conjugate (Bacillus cereus, UniProt P04190); format: biochemical; details: pH 7
[9] = target: β-lactamase from B. cereus (Bacillus cereus, UniProt P04190); assay: Release of adriamycin from ADR-ceph in human plasma at 37°C, HPLC; format: biochemical; details: human plasma 37°C, ADR-ceph 572 µg/ml, β-lactamase 0.45 µg/ml
Experimental: The ability of the purified β-lactamase from B. cereus and the lactamase-L6 conjugate to catalyze the release of adriamycin from ADR-ceph was evaluated in human plasma at 37°C.
as §1

[10] = tested on: human lung adenocarcinoma cell line, H2981
[11] = in vitro; details: mouse, plasma
[12] = tested on: H2981 lung cells; assay: In vitro cytotoxicity of CM with L6-β-lactamase conjugate, 3H-thymidine incorporation; details: cells exposed to L6-β-lactamase conjugate 1 hr at 37° C, washed, then CM
[13] = tested on: Balb C nu/nu mice; details: mouse, in vivo, iv
[14] = tested on: E. coli β-lactamase; assay: Hydrolysis of CM by commercially available β-lactamase in PBS at 37° C, HPLC; format: biochemical; details: CM 50 µM in PBS at 37° C, 3 µg total protein/ml, partially purified enzyme
[15] = physchem; details: imdm cell growth medium
[16] = target: T2, B. cereus β-lactamase (Bacillus cereus, UniProt P04190); format: biochemical; details: CM 50 µM in PBS at 37° C, 3 µg total protein/ml, partially purified enzyme
T2 construct: purchased Sigma Chem. Co
T2 sequence (P04190 31-257): T1 sequence (P04190 31-257)

[17] = target: T3, BCP II (Bacillus cereus penicillinase) (Bacillus cereus, UniProt P04190); assay: Conversion of the cephalosporin-mitomycin prodrug by BCP II in PBS, followed by TLC; format: biochemical; details: 0.3 mg compound in PBS (1 mL), BCP II 10 µL (4.1 mg/mL)
T3 sequence (P04190 31-257): T1 sequence (P04190 31-257)
Experimental: To a greyish blue solution of the title compound (0.3 mg) in PBS (1 mL) was added BCP II (Bacillus cereus penicillinase, 10 µL, protein concentration = 4.1 mg/mL). Immediately the color changed to blue.

Chain of P99 cephalosporinase from E. cloacae (P05364 21-381): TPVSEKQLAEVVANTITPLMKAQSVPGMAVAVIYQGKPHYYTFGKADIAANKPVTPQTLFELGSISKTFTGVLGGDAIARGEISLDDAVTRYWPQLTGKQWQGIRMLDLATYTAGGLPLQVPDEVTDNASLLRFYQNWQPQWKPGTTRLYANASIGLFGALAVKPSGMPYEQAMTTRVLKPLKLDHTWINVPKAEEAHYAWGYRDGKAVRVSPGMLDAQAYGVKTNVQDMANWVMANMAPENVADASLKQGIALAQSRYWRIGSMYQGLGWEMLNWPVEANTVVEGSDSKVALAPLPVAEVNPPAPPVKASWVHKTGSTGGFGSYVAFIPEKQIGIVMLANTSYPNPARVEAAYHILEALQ
Chain of Sigma penicillinase from E. cloacae (P05364 21-381): as above

O=C(O)CN(CCN(CC(=O)O)CC(=O)O)CC(=O)O [EDTA, reference compound]
inhibition of the enzyme activity [1]: completely inhibited

COc1cccc2c1C(=O)c1c(O)c3c(c(O)c1C2=O)C[C@@](O)(C(=O)CO)C[C@@H]3O[C@H]1C[C@H](NC(=O)OCC2=C(C(=O)O)N3C(=O)C(NC(=O)Cc4ccccc4)C3SC2)[C@H](O)[C@H](C)O1 (some centres unmarked) [ADR-ceph, 3-[[(N-adriamycinyl)carbonyloxy]methyl]-7-phenylacetamido-8-oxo-5-thia-1-azabicyclo[4.2.0]oct-2-ene-2-carboxylic acid]
Hydrolysis, µmoles/min/µg protein [2]: 0.016 µmoles/min/µg protein
half-life [3]: 20 h
half-life [4]: 8 h
Hydrolysis, µmoles/min/µg protein [5]: 0.060 µmoles/min/µg protein
Hydrolysis, µmoles/min/µg protein [6]: 0.0030 µmoles/min/µg protein
half-life [7]: ≥ 12 h
Hydrolysis, µmoles/min/µg protein [8]: 0.021 µmoles/min/µg protein
hydrolysis of ADR-ceph, release of adriamycin [9]: efficiently hydrolyzed

O=C(Cc1cccs1)N[C@@H]1C(=O)N2C(C(=O)[O-])=C(C[n+]3ccccc3)CS[C@H]12 [Cephaloridine, reference compound]
Hydrolysis, µmoles/min/µg protein [2]: 0.038 µmoles/min/µg protein
Hydrolysis, µmoles/min/µg protein [5]: 0.30 µmoles/min/µg protein
Hydrolysis, µmoles/min/µg protein [6]: 0.026 µmoles/min/µg protein
Hydrolysis, µmoles/min/µg protein [8]: 0.045 µmoles/min/µg protein

O=C(Cc1ccccc1)NC1C(=O)N2C(C(=O)O)=C(COC(=O)Nc3ccc(N(CCCl)CCCl)cc3)CSC12 (centres unmarked) [CM]
IC50 [10]: ~100 µM
cytotoxic activity of CM with purified B. cereus β-lactamase (II) [10]: enhanced the cytotoxic activity of CM to the level observed for PDM
enhancement of the activity of CM by β-lactamases [10]: 50-100 fold
Km ([1]; CM as substrate): 25 µM
Vmax ([1]; CM as substrate): 250 µmol/min/mg
metabolised at 2.5 h, 500 µM [11]: 12%
cytotoxic effect of CM with the antibody-β-lactamase conjugate [12]: enhanced cytotoxic effect
difference in toxicity on a molar basis, CM versus PDM [13]: > 11 fold
dose up to which no toxicity was observed [13]: ≥ 900 µg/injection
hydrolysis of CM, release of PDM [14]: able to hydrolyze CM to release the nitrogen mustard, PDM
half-life at 500 µM [15]: 0.5 h
hydrolysis of CM, release of PDM [16]: able to hydrolyze CM to release the nitrogen mustard, PDM

COC12C(COC(N)=O)C3=C(C(=O)C(C)=C(NCC4=C(C(=O)O)N5C(=O)C(NC(=O)Cc6ccccc6)C5SC4)C3=O)N1CC1NC12 (centres unmarked) [Example 1.2.5, 7-Phenylacetamido-3-(N^7-mitomycin C)-8-oxo-5-thia-1-azabicyclo[4.2.0]oct-2-ene-2-carboxylic acid]
conversion to mitomycin C [17]: complete conversion to mitomycin C

Reference: patent EP0742015A1, “Prodrugs for beta-lactamase and uses thereof” (Bristol-Myers Squibb Company, priority 1990, dated 1992)
